Data taken from PMC12028472, “Marine-Derived Yaequinolone Derivative CHNQD-02792 Suppresses Colorectal Cancer Cell Proliferation and Induces Apoptosis via MAPK Pathway Modulation” (Marine Drugs, 2025).

What was measured:
[1] = test system: HT-29; assay: MTT assay, HT-29 cells; type: cell-based; settings: Homo sapiens, 72 h
Protocol: (§1) Human colorectal adenocarcinoma cells HT-29, HCT-116, DLD-1, LS-174T, RKO, and LoVo, as well as mouse colorectal carcinoma cell CT-26, were purchased from the Chinese Academy of Sciences Shanghai Cell Bank.
(§2) Cells stored at −80 °C were rapidly thawed in a 37 °C water bath, centrifuged to collect, and resuspended in a complete medium for culturing in a 37 °C, 5% CO2 incubator. Then, they were rinsed twice with PBS, digested with trypsin, and resuspended in a complete medium after detachment. HT-29, HCT-116, DLD-1, and CT-26 cells were cultured in RPMI-1640 medium supplemented with 10% FBS and 1% penicillin-streptomycin. LS-174T cells were cultured in DMEM-H medium, LoVo in Ham’s F-12K medium, and RKO in MEM.
(§3) Cells in the logarithmic growth phase were seeded in 96-well plates at 4000 cells per well, adjusted based on growth rates, and incubated overnight at 37 °C with 5% CO2. Experimental wells were treated with yaequinolone derivatives at concentrations of 0.4, 2, 10, 20, and 50 μM, while control wells received equivalent dilutions of DMSO to minimize effects. Each group was prepared in five replicates and incubated for 72 h. After removing the drug-containing medium, 100 μL of MTT solution (5 mg/mL) was added to each well and incubated at 37 °C for 4 h. The solution was then aspirated, replaced with 200 μL of DMSO, incubated for 10 min at 37 °C, and shaken before measuring absorbance (OD) at 570 nm using a microplate reader. The tumor cell survival rate was calculated as follows: survival rate (%) = [(OD experimental group − OD blank group)/(OD control group − OD blank group)] × 100%. All experiments were conducted in triplicate.

[2] = test system: CT-26; assay: MTT assay, CT-26 cells; type: cell-based; settings: Mus musculus, CT26, 72 h
Protocol: as §1, §2, §3

[3] = test system: RKO; assay: MTT assay, RKO cells; type: cell-based; settings: Homo sapiens, 72 h
Protocol: as §1, §2, §3

[4] = test system: LoVo; assay: MTT assay, LoVo cells; type: cell-based; settings: Homo sapiens, 72 h
Protocol: as §1, §2, §3

[5] = test system: HCT-116; assay: MTT assay, HCT-116 cells; type: cell-based; settings: Homo sapiens, 72 h
Protocol: as §1, §2, §3

[6] = test system: DLD-1; assay: MTT assay, DLD-1 cells; type: cell-based; settings: Homo sapiens, 72 h
Protocol: as §1, §2, §3

[7] = test system: LS-174T; assay: MTT assay, LS-174T cells; type: cell-based; settings: Homo sapiens, LS174T, 72 h
Protocol: as §1, §2, §3

[8] = test system: RAW264.7 cells; assay: Inhibition of RAW264.7 cells (normal cells vs cancer cells); type: cell-based; settings: Mus musculus
Text: Therefore, to verify the difference between CHNQD-02792 on normal cells and cancer cells, we examined the inhibition of CHNQD-02792 on RAW264.7 cells. […] The inhibition of HT-29 cell colony formation increased with higher concentrations of CHNQD-02792.

[9] = test system: HT-29 cells; assay: Plate colony formation assay; type: cell-based, human; settings: 9 μM, 14 days
Protocol: Cells in the logarithmic growth phase were seeded at 1000 per well in 6-well plates and incubated overnight at 37 °C with 5% CO2. CHNQD-02792 (2.3, 4.5, and 9 μM) was added to the experimental group, while the control group received an equal dilution of DMSO. The medium color was monitored regularly, and the medium was replaced simultaneously in both groups. After 14 days, clonal clusters (approximately 50 cells) were formed. The cells were washed with PBS, fixed with 4% paraformaldehyde for 1 h, stained with crystal violet for 30 min, washed again with PBS, dried, photographed, and analyzed using Image J software (v 1.8.0.) to count colonies. The cell proliferation rate was calculated by comparing the experimental group with the control group treated with DMSO.

[10] = test system: HT-29 cells; assay: Cell cycle assay (PI, flow cytometry); type: cell-based, human; settings: highest concentration, 48 h, control 16.42%
Protocol: Cells in the logarithmic growth phase were seeded at 350,000 cells per well in 6-well plates and incubated overnight at 37 °C with 5% CO2. CHNQD-02792 (2.3, 4.5, 9 μM) was added to the experimental group, while an equal dilution of DMSO was added to the control group. After 48 h, cells were collected, centrifuged at 300× g for 5 min at 4 °C, and resuspended in 1 mL of ice-cold PBS. This step was repeated, and the supernatant was discarded. The cells were then resuspended in 300 μL of PBS, and 700 μL of pre-cooled anhydrous ethanol was added dropwise for fixation at 4 °C overnight. Within 12–24 h, cells were centrifuged at 1000× g for 5 min, and the supernatant was discarded. The cells were washed with 1 mL of pre-cooled PBS, centrifuged again, and resuspended in 500 μL of PBS. RNase A and PI were then added to each tube, […]. The cells were incubated at 4 °C with RNase A and PI in the dark for 30 min. Data were collected using a flow cytometer (488 nm laser excitation, 620/29 nm filter), and results were analyzed using FlowJo software (v.10.8.1).

[11] = test system: HT-29 cells; assay: Apoptosis assay (Annexin V-FITC/PI flow cytometry); type: cell-based, human
Protocol: Cells in the logarithmic growth phase were seeded at 600,000 cells per well in 6-well plates and incubated overnight at 37 °C in a 5% CO2 incubator. CHNQD-02792 (2.3, 4.5, 9 μM) was added to the experimental group, while the control group received an equal dilution of DMSO. After 48 h, cells were collected, centrifuged at 300× g for 5 min, and washed once with PBS. The cells were gently resuspended and counted. Take 1–5 × 10^5 resuspended cells, centrifuge at 300× g for 5 min, and discard the supernatant. The cells were washed once with PBS, centrifuged again, and the supernatant was discarded. Then, 500 μL of 1× diluted Annexin V Binding Buffer was added to resuspend the cells. Add 5 μL of Annexin V-FITC and 5 μL of PI (50 μg/mL) to the cell suspension. After gently vortexing, incubate the samples at room temperature in the dark for 15–20 min. Immediately analyze the samples using a flow cytometer. The results were analyzed using Novoexpress software (v.1.6.2).

[12] = test system: Cyclin B1; assay: Western blot, Cyclin B1 expression in HT-29 cells; type: cell-based, human; settings: HT-29, increasing concentrations (2.3, 4.5, 9 μM)
Protocol: (§4) Cells in the logarithmic growth phase were seeded at 600,000 cells per well in 6-well plates and incubated overnight at 37 °C with 5% CO2. CHNQD-02792 (2.3, 4.5, and 9 μM) was added to the experimental group, while an equivalent dilution of DMSO was added to the control group. After 24 h of treatment, the cells were collected from the incubator. The cells were washed twice with pre-cooled PBS, and the proteins were extracted using ice-cold RIPA lysis buffer (RIPA-PMSF, 99:1, v/v). Adherent cells were scraped off the Petri dish with a pre-cooled plastic scraper. Protein concentrations were measured using a BCA kit. Protein samples were mixed with 5× loading buffer, boiled in a metal bath for 6 min, and stored at −20 °C. Proteins of different molecular weights were separated by gel electrophoresis and transferred onto PVDF membranes using wet transfer. The membrane was blocked with 5% skimmed milk powder for 2 h, followed by incubation with the primary antibody overnight at 4 °C. After three washes with TBST (10 min each), the membrane was incubated with the secondary antibody at room temperature for 1 h. It was then washed three times with TBST (10 min each) and analyzed using a gel imaging system with a high-sensitivity ECL luminescent solution.

[13] = test system: CDK1; assay: Western blot, CDK1 expression in HT-29 cells; type: cell-based, human; settings: HT-29, increasing concentrations (2.3, 4.5, 9 μM)
Protocol: as §4

[14] = test system: Caspase-3; assay: Western blot, Caspase-3 expression in HT-29 cells; type: cell-based, human; settings: HT-29, increasing concentrations (2.3, 4.5, 9 μM)
Protocol: as §4

[15] = test system: Bcl-2; assay: Western blot, Bcl-2 expression in HT-29 cells; type: cell-based, human; settings: HT-29, increasing concentrations (2.3, 4.5, 9 μM)
Protocol: as §4

[16] = test system: Bax; assay: Western blot, Bax expression in HT-29 cells; type: cell-based, human; settings: HT-29, increasing concentrations (2.3, 4.5, 9 μM)
Protocol: as §4

[17] = test system: ERK; assay: Western blot, ERK phosphorylation in HT-29 cells; type: cell-based, human; settings: HT-29, Western blot
Protocol: as §4

[18] = test system: JNK; assay: Western blot, JNK phosphorylation in HT-29 cells; type: cell-based, human; settings: HT-29, Western blot
Protocol: as §4

[19] = test system: LPS-induced RAW264.7 cells; set-up: method as in PMID 36758306; settings: 10 nM; cited from earlier work
[20] = test system: LPS-induced RAW264.7 cells; set-up: method as in PMID 36758306; settings: 50 nM; cited from earlier work

SMILES | IC50 [1] | IC50 [2] | IC50 [3] | IC50 [4] | IC50 [5] | IC50 [6] | IC50 [7] | further results
O=c1[nH]cc(F)c(=O)[nH]1 [5-fluorouracil, reference compound] | 15.6 µM |  |  |  |  |  |  | 
COc1ccc([C@]2(O)c3c(ccc4c3O[C@](C)(CCC=C(C)C)C=C4)N(Cc3cccc(Br)c3)C(=O)[C@H]2OC)cc1 [Compound 4] | > 50 µM | > 50 µM | 48.3 µM | > 50 µM | > 50 µM | > 50 µM | > 50 µM | 
COc1ccc([C@]2(O)c3c(ccc4c3O[C@@](C)(CCC=C(C)C)C=C4)N(Cc3cccc(Br)c3)C(=O)[C@H]2OC)cc1 [Compound 7] | > 50 µM | > 50 µM | 22 µM | 25 µM | > 50 µM | > 50 µM | > 50 µM | 
CO[C@@H]1C(=O)Nc2ccc3c(c2[C@@]1(O)c1cccc(Br)c1)O[C@@](C)(CCC=C(C)C)C=C3 [Compound 12] | 42.8 µM | 26.3 µM | 37.3 µM | > 50 µM | 25.8 µM | 11.6 µM | 7.7 µM | 
CO[C@@H]1C(=O)Nc2ccc3c(c2[C@@]1(O)c1cccc(Br)c1)O[C@](C)(CCC=C(C)C)C=C3 [Compound 13] | 4.5 µM | > 50 µM | 28 µM | 28.3 µM | 50 µM | > 50 µM | 24.3 µM | IC50 [8]: 27.2 µM; growth of HT-29 cells, plate cloning assay [9]: completely inhibited; proportion of cells in the G2/M phase [10]: 31.78%; Q4 (early apoptotic cells) ([11]; 9.0 μM, 48 h, HT-29, Annexin V-FITC/PI, control 5.31%): 20.23%; proportion of apoptotic cells ([11]; 48 h of treatment, HT-29, control 6.81%): 26.10%; Cyclin B1 protein expression level [12]: decreased; CDK1 protein expression level [13]: decreased; Caspase-3 protein expression [14]: significantly increased; Bcl-2 protein expression [15]: markedly decreased; Bax protein expression [16]: increased; phosphorylation of ERK [17]: inhibited; phosphorylation of JNK [18]: increased; NO release [19]: significantly inhibiting; IL-6 level [20]: significantly inhibiting
